Test results from patent publication US11555210B2, “Microbe having increased tolerance to phenolic fermentation inhibitors” (University of Ottawa, priority 2018, dated 2023).
Entries after “also recorded” stand apart in the source; their conditions may differ.

How the values were obtained:
Type in all cases: cell-based, S. cerevisiae
[1] = tested on: zwf1Δ (YKB4794); test: dot assay on YPD agar plates; details: 10 mM FA, 35 mM 4-HBA or 1 mM CA, 48 hr at 30° C., compared to wild type
Protocol: (§1) Wild type (BY4741) along with zwf1Δ (YKB4794), sol2Δ (YKB4847), sol3Δ (YKB4848), gnd1Δ (YKB4797), gnd2Δ (YKB4850), rpe1Δ (YKB4795), tal1Δ (YKB4851) and tkl1Δ (YKB4796) deletion strains were grown to mid log phase in YPD medium prior to being diluted into fresh medium to an OD600of 0.1. Four 10-fold serial dilutions were spotted onto YPD agar plates containing either 1 mM coniferyl aldehyde (1 mM CA) or no coniferyl aldehyde (0 mM CA). Plates were incubated for 48 hr at 30° C. and images are representative of three biological replicates.
(§2) Wild type (BY4741), bna7Δ (YKB4649) and zwf1Δ (YKB4794) were grown to mid log phase in YPD medium prior to being diluted into fresh medium to an OD600 of 0.1. Four 10-fold serial dilutions were spotted onto YPD agar plates containing either no compound (Untreated), 10 mM ferulic acid (FA), 35 mM 4-hydroxybenzoic acid (4-HBA) or 1 mM coniferyl aldehyde (CA). Plates were incubated for 48 hr at 30° C. and images are representative of three biological replicates.

[2] = tested on: bna7Δ (YKB4649); test: serial dilution spot assay on YPD agar plates; details: 10 mM FA, 35 mM 4-HBA or 1 mM CA, 48 hr at 30° C.
Protocol: In addition, deletion mutants were generated for genes involved in the tryptophan catabolic pathway and their growth was assayed on solid media containing 10 mM ferulic acid. In particular, wild type yeast (BY4741) along with deletion mutants aro8Δ (YKB4799), bna7Δ (YKB4649), bna2Δ (YKB4798), bna6Δ (YKB4844), bna5Δ (YKB4845), bna4Δ (YKB4846) and bna1Δ (YKB4729) were grown to mid log phase ([…] 0.5-0.6) in YPD medium prior to being diluted to an OD600 of 0.1. Four 10-fold serial dilutions were spotted onto YPD agar plates either containing 10 mM ferulic acid or no ferulic acid. Plates were incubated for 48 hr at 30° C. Images of the plates were taken with the ChemiDoc XRS Molecular Imaging system (Biorad) and images are representative of three biological replicates.
as §2, with “Experiments were also conducted to determine if deletion of BNA7 could provide protection to 4-hydroxybenzoic acid or coniferyl aldehyde (CA). Wild” for “Wild”, “(BY4741) and bna7A” for “(BY4741), bna7Δ”, “strains” for “and zwf1Δ (YKB4794)”

[3] = tested on: Zwf1-GFP; test: co-localization of Zwf1-GFP with mitochondrial and ER markers
Excerpt: For co-localization studies, images were obtained as Z-stacks. Co-localization of the fluorescence signals were quantified using the IMARIS software 9.2.1 (Bitplane; http://www.bitplane.com) and a Manders' overlap co-efficient (Manders et al., 1993, Journal of Microscopy. 169, 375-382) was used to evaluate the fraction of RFP pixels (organelle marker) also positive for GFP pixels ([…]). The closer the value is to one, the higher the level of co-localization. The analysis was complemented by performing an object-based quantification where the percentage volume of ROS that localized to the mitochondria and endoplasmic reticulum was measured.
A strain expressing endogenously tagged Zwf1-GFP and either the mitochondrial marker CIT1-RFP or the ER marker SEC13-RFP were imaged as described in Example 5 both before and after 2 hours of treatment with 2 mM coniferyl aldehyde. […] Using the object-based analysis, the percentage volume of Zwf1 localizing to the mitochondria was measured as 47.10±8.04%. Likewise, co-localization of Zwf1-GFP to the ER marker Sec13-RFP was observed, though to a lesser extent, and confirmed by a quantitative analysis using a Mander's overlap co-efficient (0.22±0.07). (FIG. 11B).

[4] = tested on: gnd1Δ (YKB4797); test: dot assay on YPD agar plates; details: 1 mM coniferyl aldehyde, 48 hr at 30° C.
Protocol: as §1

[5] = tested on: tkl1Δ (YKB4796); test: dot assay on YPD agar plates; details: 1 mM coniferyl aldehyde, 48 hr at 30° C.
Protocol: as §1

[6] = tested on: rpe1Δ (YKB4795); test: dot assay on YPD agar plates; details: 1 mM coniferyl aldehyde, 48 hr at 30° C.
Protocol: as §1

[7] = tested on: Zwf1; test: Zwf1 protein quantification by western blot; details: 2 mM coniferyl aldehyde, 2 hours at 30° C.; ρ=0.00176
Protocol: Protein quantification was carried out by western blots as follows. Overnight cultures of wild type cells were diluted in fresh YPD medium to a final OD600 of 0.1. These were grown at 30° C. until they reached the early log phase. Subsequently, coniferyl aldehyde was added to the cultures to a final concentration of 2 mM and the cultures were further incubated for 2 hours. Whole cell extracts (WCE) were obtained by centrifugation of the cells (3000 rpm for 3 min; 4° C.), washing of cell pellet with chilled sterile water and cell lysis using the Trichloroacetic acid (TCA) protocol (Kao and Osley, 2003, Methods. 31,59-66). Equal number of cells was used for the TCA lysis and equal volumes of WCE were used for the quantitative western blot analysis. […] Prior to the protein level quantification, the linear range of the target protein Zwf1 was determined by loading seven 2-fold dilutions of the WCE to obtain a standard curve of protein load versus band intensity of Zwf1. The amount of Zwf1 in the coniferyl aldehyde treated cultures and the control was quantified using the Image Lab software as previously described (Taylor and Posch, 2014, BioMed Research International. 2014, 361590). This was calculated as the ratio of the Zwf1 band intensity to the intensity of bands in the entire lane signal using the TGX Stain-Free Fast Cast (total proteins). […]

[8] = 2 hours of treatment with 2 mM coniferyl aldehyde

Structure (SMILES): COc1cc(C=CC=O)ccc1O [coniferyl aldehyde, 4-hydroxy-3-methoxycinnamaldehyde]
- growth of zwf1Δ on agar plates [1]: no growth; also recorded: limited growth
- resistance of bna7Δ / protection by deletion of BNA7 [2]: does not provide protection
- Mander's overlap co-efficient, Zwf1-GFP with ER marker Sec13-RFP [3, 8]: 0.22±0.07
- Manders' overlap coefficient, Zwf1-GFP with mitochondrial marker CIT1-RFP [3, 8]: 0.34±0.07
- percentage volume of Zwf1 localizing to the mitochondria ([3]; 2 hours, 2 mM coniferyl aldehyde, object-based analysis): 47.10±8.04%
- growth of gnd1Δ on agar plates [4]: no growth
- growth of tkl1Δ on agar plates [5]: no growth
- growth of rpe1Δ on agar plates [6]: no growth
- increase in Zwf1 protein levels compared to untreated [7]: 1.5 fold
